Experimental data: patent US10766882B2, “1,2-naphthoquinone based derivative and method of preparing the same” (YUNGJIN PHARM. CO., LTD., priority 2013, dated 2020)

Experiments:
Cells = experiment: Measurement of lactate change amount within cells; assay type: cell-based; details: PCA extract of cells, lactate measured from supernatant (Megazyme, K-LATE)
Description: Cells were treated with 400 μl of 6% PCA, and then collected and extracted. Centrifugation (13,000 rpm, 10 min) was performed. A precipitate was dried using a Speed-Vac and then a weight of dried precipitate was measured. A supernatant was neutralized using 400 μl of 1 M KOH and a final volume thereof was adjusted to 1 ml using 0.33 M KH2PO4/K2HPO4, pH 7.5. Centrifugation (13,000 rpm, 10 min) was performed and the amount of lactate was measured from a supernatant (Megazyme, K-LATE).

NQO1 protein = NQO1 protein (Homo sapiens, UniProt P15559); experiment: NQO1 activity measurement (cytochrome C reduction); assay type: biochemical; details: 5 ng NQO1 protein, 200 μM NADH, 77 μM cytochrome C, 37° C., absorbance 550 nm for 10 minutes
Chain of NQO1 protein (P15559 whole entry, species assumed): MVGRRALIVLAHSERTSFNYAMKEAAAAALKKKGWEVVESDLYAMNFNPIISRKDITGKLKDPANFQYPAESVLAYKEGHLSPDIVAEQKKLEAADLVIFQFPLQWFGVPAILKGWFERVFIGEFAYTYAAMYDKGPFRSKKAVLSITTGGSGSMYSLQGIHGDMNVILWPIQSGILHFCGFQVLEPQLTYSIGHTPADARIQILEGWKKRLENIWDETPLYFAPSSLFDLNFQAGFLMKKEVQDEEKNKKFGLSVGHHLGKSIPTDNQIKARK
Description: An enzyme reaction solution included 25 mM Tris/HCl (pH 7.4), 0.14% bovine serum albumin, 200 μM NADH, 77 μM cytochrome C, and 5 ng of NQO1 protein. Enzymatic reaction was initiated by adding NADH and performed at 37° C. In this regard, a reaction rate was measured by observing absorbance, which was increased due to reduction of cytochrome C, at 550 nm for 10 minutes and NQO1 activity was represented as an amount of reduced cytochrome C [nmol cytochrome C reduced/min/μg protein].
Extinction coefficient for cytochrome C:21.1 mmol/L/cm=21.1 μmol/ml/cm

C57BL/6J Lep ob/ob mice = experiment: Weight loss effects in obese mice (ob/ob); assay type: in vivo; details: Exp. Ex. 3-3, FIG. 3: 11 week-old ob/ob mice, 100 mg/kg oral, total of 6 days, vs 0.1% SLS controls
Description: 10 week-old C57BL/6J Lep ob/ob mice having genetic obesity characteristics available from ORIENTBIO were prepared. Two mice were raised in each polycarbonate breeding cage (200 W×260 L×130H (mm), Three-shine) in which temperature was 20 to 24° C., relative humidity was 35 to 65%, illuminance was 150 to 300 lux, night and day were 12 hours, and exhaust was performed at 10 to 15 air changes per hour. As a feed, low fat diet (11.9 kcal % fat, 5053, Labdiet) manufactured by ORIENTBIO was used. The feed was contained in a feeder and free intake was allowed. As drinking water, water, which was contained in a 250 mL polycarbonate based bottle, purified through a filter and a sterilizer was used and free intake was allowed.
The compound according to Example 1 synthesized in the present invention was orally administered to three C57BL/6J Lep ob/ob mice in amounts of 40 mg/kg, 80 mg/kg, and 120 mg/kg, respectively, once every day for two weeks. For administration, a disposable syringe fitted with a sonde for oral administration was used and 10 ml/kg of the compound was orally administered into the stomach. As controls, three C57BL/6J Lep ob/ob mice were administered 0.1% sodium lauryl sulfate (SLS) in an amount of 120 mg/kg in the same manner as described above. After administration, a time-dependent weight increase ratio, weight change, and intake amount were measured and results are illustrated in FIG. 1 below.
Weights of the experimental animals were measured immediately before administration of a test material and seven times a week from an administration initiation day to a test termination day. Increased total weights were calculated by subtracting weights measured on an experiment initiation day from weights measured one day before an experiment termination day. Food intake amounts were calculated by measuring feed supply amounts and remaining amounts twice a week from an initiation day of test material administration to a test termination day for each individual. […]
(§1) Experiments were performed under the same conditions as in Experimental Example 3-1 except that 15 week-old C57BL/6J Lep ob/ob mice having genetic obesity characteristics available from ORIENTBIO were prepared, the compounds according to Examples 5 and 6 were administered to three C57BL/6J Lep ob/ob mice in an amount of 150 mg/kg, 150 mg/kg of 0.1% SLS was administered to each of three C57BL/6J Lep ob/ob mice as controls, and experiments were performed for a total of one week. Weight increase ratios, weight change, and intake amounts depending on administration time were measured and results are illustrated in FIG. 5 below.
as §1, with “that 10” for “that 15”, “Examples 8, 9,” for “Examples 5”, “and 12” for “and 6”, “FIG. 6” for “FIG. 5”
Experiments were performed under the same conditions as in Experimental Example 3-1 except that 6 week-old C57BL/6J Lep ob/ob mice having genetic obesity characteristics available from ORIENTBIO were prepared, the compounds according to Examples 17, 18, 22, and 23 were administered to three C57BL/6J Lep ob/ob mice in an amount of 100 mg/kg, 100 mg/kg of 0.1% SLS was administered to each of three C57BL/6J Lep ob/ob mice as controls, and experiments were performed for a total of one week. Weight increase ratios, weight change, and intake amounts depending on administration time were measured and results are illustrated in FIG. 10 below. […]

## CC(C)c1nc2c(n1C(=O)OC(C)(C)C)C(=O)C(=O)c1ccccc1-2 [Example 29]
Cells
  Lactate change amount within cells (nmol/mg cell): 8.1 nmol/mg cell
NQO1 protein
  NQO1 activity (5 μM, [nmol cytochrome C reduced/min/μg protein]): 215.6 nmol cytochrome C reduced/min/μg protein

## CC(=O)Nc1ccc2c(c1)C(=O)C(=O)c1[nH]c(C(C)C)nc1-2 [Example 19]
Cells
  Lactate change amount within cells (nmol/mg cell): 6.5 nmol/mg cell
NQO1 protein
  NQO1 activity (5 μM, [nmol cytochrome C reduced/min/μg protein]): 24.6 nmol cytochrome C reduced/min/μg protein

## CCn1c(C(C)C)nc2c1C(=O)C(=O)c1ccccc1-2 [Example 36]
Cells
  Lactate change amount within cells (nmol/mg cell): 7.8 nmol/mg cell
NQO1 protein
  NQO1 activity (5 μM, [nmol cytochrome C reduced/min/μg protein]): 164.6 nmol cytochrome C reduced/min/μg protein

## CC(C)c1nc2c(n1Cc1ccccc1)C(=O)C(=O)c1ccccc1-2 [Example 32]
Cells
  Lactate change amount within cells (nmol/mg cell): 5.8 nmol/mg cell
NQO1 protein
  NQO1 activity (5 μM, [nmol cytochrome C reduced/min/μg protein]): 124.2 nmol cytochrome C reduced/min/μg protein

## CCc1nc2c(n1C)C(=O)C(=O)c1cc(Cl)ccc1-2 [Example 43, 7-chloro-2-ethyl-3-methyl-3H-naphtho[2,1-d]imidazole-4,5-dione]
Cells
  Lactate change amount within cells (nmol/mg cell): 6.0 nmol/mg cell
NQO1 protein
  NQO1 activity (5 μM, [nmol cytochrome C reduced/min/μg protein]): 111.6 nmol cytochrome C reduced/min/μg protein

## CCOC(=O)n1c(C(C)C)nc2c1C(=O)C(=O)c1ccccc1-2 [Example 37]
Cells
  Lactate change amount within cells (nmol/mg cell): 10.3 nmol/mg cell
NQO1 protein
  NQO1 activity (5 μM, [nmol cytochrome C reduced/min/μg protein]): 215.7 nmol cytochrome C reduced/min/μg protein

## CCc1nc2c(n1C)-c1ccc(F)cc1C(=O)C2=O [Example 42, 2-ethyl-7-fluoro-1-methyl-1H-naphtho[2,1-d]imidazole-4,5-dione]
Cells
  Lactate change amount within cells (nmol/mg cell): 8.9 nmol/mg cell
NQO1 protein
  NQO1 activity (5 μM, [nmol cytochrome C reduced/min/μg protein]): 57.0 nmol cytochrome C reduced/min/μg protein

## CC(C)c1nc2c(n1Cc1ccccc1)-c1ccccc1C(=O)C2=O [Example 2, 1-benzyl-2-isopropyl-1H-naphtho[2,1-d]imidazole-4,5-dione]
Cells
  Lactate change amount within cells (nmol/mg cell): 7.3 nmol/mg cell
NQO1 protein
  NQO1 activity (5 μM, [nmol cytochrome C reduced/min/μg protein]): 143 nmol cytochrome C reduced/min/μg protein

## CCc1nc2c(n1C)-c1ccccc1C(=O)C2=O [Example 39, 2-ethyl-1-methyl-1H-naphtho[2,1-d]imidazole-4,5-dione]
Cells
  Lactate change amount within cells (nmol/mg cell): 8.4 nmol/mg cell
NQO1 protein
  NQO1 activity (5 μM, [nmol cytochrome C reduced/min/μg protein]): 104.7 nmol cytochrome C reduced/min/μg protein

## CCc1nc2c([nH]1)C(=O)C(=O)c1cc(N)ccc1-2 [Example 25]
Cells
  Lactate change amount within cells (nmol/mg cell): 6.1 nmol/mg cell
NQO1 protein
  NQO1 activity (5 μM, [nmol cytochrome C reduced/min/μg protein]): 173.1 nmol cytochrome C reduced/min/μg protein

## COc1ccc(-c2nc3c([nH]2)C(=O)C(=O)c2ccccc2-3)cc1 [Example 10]
Cells
  Lactate change amount within cells (nmol/mg cell): 9.9 nmol/mg cell
NQO1 protein
  NQO1 activity (5 μM, [nmol cytochrome C reduced/min/μg protein]): 103 nmol cytochrome C reduced/min/μg protein

## Cn1c(C(C)(C)C)nc2c1-c1cccnc1C(=O)C2=O [Example 14]
Cells
  Lactate change amount within cells (nmol/mg cell): 12.4 nmol/mg cell
NQO1 protein
  NQO1 activity (5 μM, [nmol cytochrome C reduced/min/μg protein]): 179 nmol cytochrome C reduced/min/μg protein

## CC(C)(C)c1nc2c([nH]1)C(=O)C(=O)c1ncccc1-2 [Example 7, 2-tert-butyl-3H-imidazo[4,5-f]quinoline-4,5-dione]
Cells
  Lactate change amount within cells (nmol/mg cell): 11.4 nmol/mg cell
NQO1 protein
  NQO1 activity (5 μM, [nmol cytochrome C reduced/min/μg protein]): 55 nmol cytochrome C reduced/min/μg protein

## CCc1nc2c(n1C)-c1ccc(Cl)cc1C(=O)C2=O [Example 44, 7-chloro-2-ethyl-1-methyl-1H-naphtho[2,1-d]imidazole-4,5-dione]
Cells
  Lactate change amount within cells (nmol/mg cell): 9.5 nmol/mg cell
NQO1 protein
  NQO1 activity (5 μM, [nmol cytochrome C reduced/min/μg protein]): 43.4 nmol cytochrome C reduced/min/μg protein

## O=C1C(=O)c2nccnc2-c2ccccc21 [Example 13]
C57BL/6J Lep ob/ob mice
  intake amount: significantly decreased
  weight increase ratio: significantly decreased
NQO1 protein
  NQO1 activity (5 μM, [nmol cytochrome C reduced/min/μg protein]): 291 nmol cytochrome C reduced/min/μg protein
